The subject of one data set is MDA-MB-231 cells. The data set is described as follows: Cytotoxicity assay (CellTiter-Glo 2.0) on MDA-MB-231 cells. Format: cell-based, Human. The note with it: incubation 3 days; for IC50: Homo sapiens, 72 h. A digest of the protocol: (§1)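 Viability was measured as ATP-based bioluminescence (CellTiter-Glo 2.0) after compound treatment, with medium and exposure time set per cell line. Relative IC50 values were then calculated.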
(In general: In ATP-based viability assays light output follows the ATP content of the culture.)

Another data set deals with RD cells. The data set is described as follows: Cytotoxicity assay (CellTiter-Glo 2.0) on RD cells. The following applies: for IC50: Homo sapiens. Format: cell-based, Human. A digest of the protocol: as §1
For a further data set, the system named is EoL-1 cells. Description: Cytotoxicity assay (CellTiter-Glo 2.0) on EoL-1 cells. Type of data set: cell-based, Human. The note with it: incubation 1 day; for IC50: Homo sapiens, EOL1, 24 h. A digest of the protocol:
as §1

Another data set has as its system HUVECs. Description: Tube formation assay (anti-angiogenic activity). Type of data set: cell-based, human. The note with it: incubation 16 to 18 hours; for IC50: Homo sapiens, HUVEC. Summed up:
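HUVECs plated at 5000 cells/well on reduced growth factor basement membrane matrix, then exposed to compounds for 16 to 18 hours at 37°C. Cells stained with calcein-AM; tube networks imaged by confocal fluorescence microscopy and quantified.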

In the next data set the test system is 4T1 cells. The data set is described as follows: Cytotoxicity assay (CellTiter-Glo 2.0) on 4T1 cells. Format: cell-based, Mouse. The note with it: incubation 2 days; for IC50: Mus musculus, 48 h. A digest of the protocol: as §1

The IC50 is the concentration at which inhibition is half-maximal.

With `CSc1cc(Oc2ccnc3c2OCC(=O)N3)ccc1NC(=O)Nc1cc(C(C)(C)C)nn1-c1ccc(CN2CCOCC2)cc1` [Compound 038, 1-[5-tert-butyl-2-[4-(morpholinomethyl)phenyl]pyrazol-3-yl]-3-[2-methylsulfanyl-4-[(3-oxo-4H-pyrido[3,2-b][1,4]oxazin-8-yl)oxy]phenyl]urea], the half-maximal inhibitory concentration (IC50) fell in the range of 1000 to 5000 nM in the data set on MDA-MB-231 cells; 1000 to 5000 nM with RD cells (48 h, 2 day-treatment); 1000 to 5000 nM in the data set on RD cells (96 h, 4 day-treatment); 1 to 10 nM with EoL-1 cells; 100 to 500 nM in the data set with HUVECs; 1000 to 5000 nM in the data set on 4T1 cells. The Cytotoxicity result in the data set with MDA-MB-231 cells is given as “++ (50% ≤ cytotoxicity < 85%)”; with RD cells (2 day-treatment), “++ (50% ≤ cytotoxicity < 85%)”; with RD cells (4 day-treatment), “++ (50% ≤ cytotoxicity < 85%)”; in the data set on EoL-1 cells it was “++ (50% ≤ cytotoxicity < 85%)”; in the data set on 4T1 cells it was “+++ (cytotoxicity ≥ 85%)”. Moreover, the Angiogenesis inhibition entry in the data set on HUVECs is reported as “+++ (angiogenesis inhibition ≥ 80%)”.

Regarding `CSc1cc(Oc2ccnc3c2OCC(=O)N3)ccc1NC(=O)Nc1cc(C(C)(C)C)nn1-c1cccc(CN2CCOCC2)c1` [Compound 035, 1-[5-tert-butyl-2-[3-(morpholinomethyl)phenyl]pyrazol-3-yl]-3-[2-methylsulfanyl-4-[(3-oxo-4H-pyrido[3,2-b][1,4]oxazin-8-yl)oxy]phenyl]urea], the half-maximal inhibitory concentration (IC50) in the data set on MDA-MB-231 cells lay in the range of 1000 to 5000 nM; with RD cells (48 h, 2 day-treatment), 1000 to 5000 nM; in the data set with RD cells (96 h, 4 day-treatment) it was 5000 to 10000 nM; in the data set on EoL-1 cells, 1 to 10 nM; in the data set on HUVECs it was 100 to 500 nM; in the data set with 4T1 cells, 1000 to 5000 nM. In addition, the Cytotoxicity entry with MDA-MB-231 cells is listed as “+++ (cytotoxicity ≥ 85%)”; with RD cells (2 day-treatment) it was “++ (50% ≤ cytotoxicity < 85%)”; in the data set on RD cells (4 day-treatment), “++ (50% ≤ cytotoxicity < 85%)”; with EoL-1 cells, “+++ (cytotoxicity ≥ 85%)”; in the data set with 4T1 cells, “+++ (cytotoxicity ≥ 85%)”. In addition, the Angiogenesis inhibition result in the data set with HUVECs was “+++ (angiogenesis inhibition ≥ 80%)”.

On to `CSc1cc(Oc2ccnc3c2OCC(=O)N3)ccc1NC(=O)Nc1cc(C(C)(C)C)nn1-c1cccc(F)c1` [Compound 012, 1-[5-tert-butyl-2-(3-fluorophenyl)pyrazol-3-yl]-3-[2-methylsulfanyl-4-[(3-oxo-4H-pyrido[3,2-b][1,4]oxazin-8-yl)oxy]phenyl]urea], for which the half-inhibitory concentration (IC50) in the data set with MDA-MB-231 cells is 1000 to 5000 nM; in the data set with RD cells (48 h, 2 day-treatment), 1000 to 5000 nM; in the data set on RD cells (96 h, 4 day-treatment), 5000 to 10000 nM; in the data set with EoL-1 cells, 1 to 10 nM; in the data set on HUVECs it was less than 100 nM; in the data set on 4T1 cells, 1000 to 5000 nM. Also, the Cytotoxicity result with MDA-MB-231 cells was “++ (50% ≤ cytotoxicity < 85%)”; with RD cells (2 day-treatment), “++ (50% ≤ cytotoxicity < 85%)”; with RD cells (4 day-treatment) it was “++ (50% ≤ cytotoxicity < 85%)”; in the data set with EoL-1 cells, “++ (50% ≤ cytotoxicity < 85%)”; in the data set on 4T1 cells it was “+++ (cytotoxicity ≥ 85%)”. Further, in the data set on HUVECs, the Angiogenesis inhibition entry was “+++ (angiogenesis inhibition ≥ 80%)”.

`CN(C)Cc1cccc(-n2nc(C(C)(C)C)cc2NC(=O)Nc2ccc(Oc3ccnc4c3OCC(=O)N4)cc2C(F)(F)F)c1` [Compound 048, 1-[5-tert-butyl-2-[3-(dimethylaminomethyl)phenyl]pyrazol-3-yl]-3-[4-[(3-oxo-4H-pyrido[3,2-b][1,4]oxazin-8-yl)oxy]-2-(trifluoromethyl)phenyl]urea]: the IC50 in the data set with MDA-MB-231 cells fell in the range of 1000 to 5000 nM; in the data set with RD cells (48 h, 2 day-treatment), 5000 to 10000 nM; with RD cells (96 h, 4 day-treatment), 1000 to 5000 nM; in the data set on EoL-1 cells, 1 to 10 nM; in the data set on HUVECs, 100 to 500 nM; in the data set with 4T1 cells, 1000 to 5000 nM. The Cytotoxicity result with MDA-MB-231 cells is “++ (50% ≤ cytotoxicity < 85%)”; with RD cells (2 day-treatment) it was “++ (50% ≤ cytotoxicity < 85%)”; in the data set on RD cells (4 day-treatment), “+++ (cytotoxicity ≥ 85%)”; in the data set on EoL-1 cells, “++ (50% ≤ cytotoxicity < 85%)”; in the data set with 4T1 cells it was “+++ (cytotoxicity ≥ 85%)”. The Angiogenesis inhibition result in the data set on HUVECs is “+++ (angiogenesis inhibition ≥ 80%)”.

As to `CSc1cc(Oc2ccnc3c2CCC(=O)N3)ccc1NC(=O)Nc1ncc(C(C)(C)C)s1` [Compound 004, 1-(5-(tert-butyl)thiazol-2-yl)-3-(2-(methylthio)-4-((7-oxo-5,6,7,8-tetrahydro-1,8-naphthyridin-4-yl)oxy)phenyl)urea], the IC50 in the data set with MDA-MB-231 cells is less than 1000 nM; with RD cells (48 h, 2 day-treatment) it was 1000 to 5000 nM; with RD cells (96 h, 4 day-treatment) it was 1000 to 5000 nM; in the data set on EoL-1 cells, 1 to 10 nM; in the data set with HUVECs it was 100 to 500 nM; in the data set with 4T1 cells it was 1000 to 5000 nM. The Cytotoxicity result in the data set on MDA-MB-231 cells was “++ (50% ≤ cytotoxicity < 85%)”; with RD cells (2 day-treatment), “+ (20 % ≤ cytotoxicity < 50%)”; with RD cells (4 day-treatment), “++ (50% ≤ cytotoxicity < 85%)”; with EoL-1 cells it was “+++ (cytotoxicity ≥ 85%)”; in the data set with 4T1 cells, “+++ (cytotoxicity ≥ 85%)”. Further, in the data set with HUVECs, the Angiogenesis inhibition entry was “+++ (angiogenesis inhibition ≥ 80%)”.

As for `CSc1cc(Oc2ccnc3c2CCC(=O)N3)ccc1NC(=O)Nc1cc(C(C)(C)C)nn1-c1ccc(C)cc1` [Compound 002, 1-(3-(tert-butyl)-1-(p-tolyl)-1H-pyrazol-5-yl)-3-(2-(methylthio)-4-((7-oxo-5,6,7,8-tetrahydro-1,8-naphthyridin-4-yl)oxy)phenyl)urea], the IC50 in the data set with MDA-MB-231 cells is 1000 to 5000 nM; with RD cells (48 h, 2 day-treatment), 1000 to 5000 nM; in the data set on RD cells (96 h, 4 day-treatment), 1000 to 5000 nM; in the data set with EoL-1 cells, 10 to 100 nM; in the data set on HUVECs, less than 100 nM; in the data set with 4T1 cells, 1000 to 5000 nM. Moreover, the Cytotoxicity result in the data set on MDA-MB-231 cells is given as “++ (50% ≤ cytotoxicity < 85%)”; in the data set on RD cells (2 day-treatment), “++ (50% ≤ cytotoxicity < 85%)”; in the data set with RD cells (4 day-treatment), “++ (50% ≤ cytotoxicity < 85%)”; in the data set with EoL-1 cells, “+++ (cytotoxicity ≥ 85%)”; with 4T1 cells, “+++ (cytotoxicity ≥ 85%)”. In addition, in the data set on HUVECs, the Angiogenesis inhibition entry is recorded as “+++ (angiogenesis inhibition ≥ 80%)”.

Consider `CN(C)Cc1ccc(-n2nc(C(C)(C)C)cc2NC(=O)Nc2ccc(Oc3ccnc4c3CCC(=O)N4)cc2C(F)(F)F)cc1` [Compound 034, 1-[5-tert-butyl-2-[4-[(dimethylamino)methyl]phenyl]pyrazol-3-yl]-3-[4-[(7-oxo-6,8-dihydro-5H-1,8-naphthyridin-4-yl)oxy]-2-(trifluoromethyl)phenyl]urea], for which the half-maximal inhibitory concentration (IC50) in the data set with MDA-MB-231 cells was 1000 to 5000 nM; in the data set on RD cells (48 h, 2 day-treatment), 1000 to 5000 nM; with RD cells (96 h, 4 day-treatment) it was 1000 to 5000 nM; in the data set with EoL-1 cells, 1 to 10 nM; in the data set on HUVECs it was less than 100 nM; in the data set on 4T1 cells, less than 1000 nM. For the same molecule, the Cytotoxicity entry in the data set on MDA-MB-231 cells was “+++ (cytotoxicity ≥ 85%)”; in the data set with RD cells (2 day-treatment) it was “+++ (cytotoxicity ≥ 85%)”; with RD cells (4 day-treatment), “+++ (cytotoxicity ≥ 85%)”; in the data set on EoL-1 cells, “++ (50% ≤ cytotoxicity < 85%)”; in the data set with 4T1 cells, “+++ (cytotoxicity ≥ 85%)”. Besides, in the data set with HUVECs, the Angiogenesis inhibition entry is listed as “+++ (angiogenesis inhibition ≥ 80%)”.

As to `CC(C)(C)c1cc(NC(=O)Nc2ccc(Oc3ccnc4c3CCC(=O)N4)cc2C(F)(F)F)n(-c2cccnc2)n1` [Compound 030, 1-[5-tert-butyl-2-(3-pyridyl)pyrazol-3-yl]-3-[4-[(7-oxo-6,8-dihydro-5H-1,8-naphthyridin-4-yl)oxy]-2-(trifluoromethyl)phenyl]urea], the half-maximal inhibitory concentration (IC50) with MDA-MB-231 cells was 1000 to 5000 nM; in the data set on RD cells (48 h, 2 day-treatment), 5000 to 10000 nM; with RD cells (96 h, 4 day-treatment) it was 5000 to 10000 nM; with EoL-1 cells, 10 to 100 nM; in the data set with HUVECs it was less than 100 nM; in the data set with 4T1 cells it was 1000 to 5000 nM. Also, the Cytotoxicity entry in the data set on MDA-MB-231 cells is “++ (50% ≤ cytotoxicity < 85%)”; in the data set with RD cells (2 day-treatment), “++ (50% ≤ cytotoxicity < 85%)”; in the data set on RD cells (4 day-treatment) it was “++ (50% ≤ cytotoxicity < 85%)”; in the data set with EoL-1 cells it was “++ (50% ≤ cytotoxicity < 85%)”; with 4T1 cells, “+++ (cytotoxicity ≥ 85%)”. Further, the Angiogenesis inhibition entry in the data set with HUVECs is recorded as “+++ (angiogenesis inhibition ≥ 80%)”.

In the case of `CSc1cc(Oc2ccnc3c2CCC(=O)N3)ccc1NC(=O)Nc1cc(C(C)(C)C)nn1-c1ccc(CN(C)C)cc1` [Compound 046, 1-[5-tert-butyl-2-[4-(dimethylaminomethyl)phenyl]pyrazol-3-yl]-3-[2-methylsulfanyl-4-[(7-oxo-6,8-dihydro-5H-1,8-naphthyridin-4-yl)oxy]phenyl]urea], the concentration for half-maximal inhibition (IC50) was 1000 to 5000 nM in the data set with MDA-MB-231 cells; 5000 to 10000 nM in the data set on RD cells (48 h, 2 day-treatment); 1000 to 5000 nM in the data set with RD cells (96 h, 4 day-treatment); less than 1 nM in the data set on EoL-1 cells; less than 100 nM in the data set on HUVECs; less than 1000 nM in the data set with 4T1 cells. Further, the Cytotoxicity result with MDA-MB-231 cells, in the data set on RD cells (2 day-treatment), in the data set on RD cells (4 day-treatment), with EoL-1 cells and in the data set with 4T1 cells was “+++ (cytotoxicity ≥ 85%)” in each case. For the same molecule, in the data set with HUVECs, the Angiogenesis inhibition entry is given as “+++ (angiogenesis inhibition ≥ 80%)”.
